# Results published in ChEMBL document CHEMBL4138123, “Design, synthesis and biological evaluation of novel pyrazolochalcones as potential modulators of PI3K/Akt/mTOR pathway and inducers of apoptosis in breast cancer cells” (Eur J Med Chem, 2017).
# Columns and labels:
# Assay type in all cases: functional
# CCRF-CEM [1] = assay: Cytotoxicity against human CCRF-CEM cells assessed as growth inhibition after 48 hrs by sulforhodamine B assay
# A549 [2] = assay: Cytotoxicity against human A549/ATCC cells assessed as growth inhibition after 48 hrs by sulforhodamine B assay; settings: A549, 48 h
# HOP-62 = assay: Cytotoxicity against human HOP62 cells assessed as growth inhibition after 48 hrs by sulforhodamine B assay; settings: HOP-62, 48 h
# NCI-H322M [3] = assay: Cytotoxicity against human NCI-H322M cells assessed as growth inhibition after 48 hrs by sulforhodamine B assay
# NCI-H522 [4] = assay: Cytotoxicity against human NCI-H522 cells assessed as growth inhibition after 48 hrs by sulforhodamine B assay; settings: NCI-H522, 48 h
# OVCAR-3 = assay: Cytotoxicity against human OVCAR3 cells assessed as growth inhibition after 48 hrs by sulforhodamine B assay; settings: OVCAR-3, 48 h
# OVCAR-8 [5] = assay: Cytotoxicity against human OVCAR8 cells assessed as growth inhibition after 48 hrs by sulforhodamine B assay; settings: OVCAR-8, 48 h
# NCI/ADR-RES = assay: Cytotoxicity against human NCI/ADR-RES cells assessed as growth inhibition after 48 hrs by sulforhodamine B assay
# SK-OV-3 = assay: Cytotoxicity against human SKOV3 cells assessed as growth inhibition after 48 hrs by sulforhodamine B assay; settings: SK-OV-3, 48 h
# 786-0 = assay: Cytotoxicity against human 786-0 cells assessed as growth inhibition after 48 hrs by sulforhodamine B assay; settings: 786-0, 48 h
# A498 = assay: Cytotoxicity against human A498 cells assessed as growth inhibition after 48 hrs by sulforhodamine B assay; settings: A498, 48 h
# RXF 393 = assay: Cytotoxicity against human RXF393 cells assessed as growth inhibition after 48 hrs by sulforhodamine B assay; settings: RXF 393, 48 h
# MCF7 = assay: Cytotoxicity against human MCF7 cells assessed as growth inhibition after 48 hrs by sulforhodamine B assay; settings: MCF7, 48 h
# RPMI-8226 [6] = assay: Cytotoxicity against human RPMI8226 cells assessed as cell growth at 0.01 uM after 48 hrs by sulforhodamine B assay relative to control; settings: RPMI-8226, 48 h, read-out: Activity
# MOLT-4 = assay: Cytotoxicity against human MOLT4 cells assessed as cell growth at 0.01 uM after 48 hrs by sulforhodamine B assay relative to control; settings: MOLT-4, 48 h, read-out: Activity
# SN12C [7] = assay: Cytotoxicity against human SN12C cells assessed as cell growth at 0.01 uM after 48 hrs by sulforhodamine B assay relative to control; settings: read-out: Activity
# T47D = assay: Cytotoxicity against human T47D cells assessed as cell growth at 0.01 uM after 48 hrs by sulforhodamine B assay relative to control; settings: read-out: Activity
# MDA-MB-468 = assay: Cytotoxicity against human MDA-MB-468 cells assessed as cell growth at 0.01 uM after 48 hrs by sulforhodamine B assay relative to control; settings: MDA-MB-468, 48 h, read-out: Activity
# SR [8] = assay: Cytotoxicity against human SR cells assessed as cell growth at 0.1 uM after 48 hrs by sulforhodamine B assay relative to control; settings: read-out: Activity
# NCI-H322M [9] = assay: Cytotoxicity against human NCI-H322M cells assessed as cell growth at 0.1 uM after 48 hrs by sulforhodamine B assay relative to control; settings: read-out: Activity
# NCI-H522 [10] = assay: Cytotoxicity against human NCI-H522 cells assessed as cell growth at 0.1 uM after 48 hrs by sulforhodamine B assay relative to control; settings: NCI-H522, 48 h, read-out: Activity
# OVCAR-8 [11] = assay: Cytotoxicity against human OVCAR8 cells assessed as cell growth at 0.1 uM after 48 hrs by sulforhodamine B assay relative to control; settings: OVCAR-8, 48 h, read-out: Activity
# SR [12] = assay: Cytotoxicity against human SR cells assessed as cell growth at 1 uM after 48 hrs by sulforhodamine B assay relative to control; settings: read-out: Activity
# SK-MEL-5 = assay: Cytotoxicity against human SK-MEL-5 cells assessed as cell growth at 1 uM after 48 hrs by sulforhodamine B assay relative to control; settings: SK-MEL-5, 48 h, read-out: Activity
# SN12C [13] = assay: Cytotoxicity against human SN12C cells assessed as cell growth at 1 uM after 48 hrs by sulforhodamine B assay relative to control; settings: read-out: Activity
# K562 = assay: Cytotoxicity against human K562 cells assessed as cell growth at 10 uM after 48 hrs by sulforhodamine B assay relative to control; settings: K562, 48 h, read-out: Activity
# SR [14] = assay: Cytotoxicity against human SR cells assessed as cell growth at 10 uM after 48 hrs by sulforhodamine B assay relative to control; settings: read-out: Activity
# A549 [15] = assay: Cytotoxicity against human A549/ATCC cells assessed as cell growth at 10 uM after 48 hrs by sulforhodamine B assay relative to control; settings: A549, 48 h, read-out: Activity
# HCC 2998 = assay: Cytotoxicity against human HCC2998 cells assessed as cell growth at 10 uM after 48 hrs by sulforhodamine B assay relative to control; settings: HCC 2998, 48 h, read-out: Activity
# MDA-MB-435 = assay: Cytotoxicity against human MDA-MB-435 cells assessed as cell growth at 10 uM after 48 hrs by sulforhodamine B assay relative to control; settings: MDA-MB-435, 48 h, read-out: Activity
# SN12C [16] = assay: Cytotoxicity against human SN12C cells assessed as cell growth at 10 uM after 48 hrs by sulforhodamine B assay relative to control; settings: read-out: Activity
# UO-31 [17] = assay: Cytotoxicity against human UO31 cells assessed as cell growth at 10 uM after 48 hrs by sulforhodamine B assay relative to control; settings: UO-31, 48 h, read-out: Activity
# CCRF-CEM [18] = assay: Cytotoxicity against human CCRF-CEM cells assessed as cell growth at 100 uM after 48 hrs by sulforhodamine B assay relative to control; settings: read-out: Activity
# RPMI-8226 [19] = assay: Cytotoxicity against human RPMI8226 cells assessed as cell growth at 100 uM after 48 hrs by sulforhodamine B assay relative to control; settings: RPMI-8226, 48 h, read-out: Activity
# M14 = assay: Cytotoxicity against human M14 cells assessed as cell growth at 100 uM after 48 hrs by sulforhodamine B assay relative to control; settings: M14, 48 h, read-out: Activity
# SN12C [20] = assay: Cytotoxicity against human SN12C cells assessed as cell growth at 100 uM after 48 hrs by sulforhodamine B assay relative to control; settings: read-out: Activity
# UO-31 [21] = assay: Cytotoxicity against human UO31 cells assessed as cell growth at 100 uM after 48 hrs by sulforhodamine B assay relative to control; settings: UO-31, 48 h, read-out: Activity
smiles,measurement,setting,value
COc1cc2c(cc1OC)C(=O)/C(=C/c1cc(-c3ccc4c(c3)OCO4)n[nH]1)C2,GI50,CCRF-CEM [1],1.14 µM
same,LC50 (concentration killing 50% of cells),CCRF-CEM [1],> 100 µM
same,TGI,CCRF-CEM [1],3.61 µM
same,GI50,A549 [2],1.96 µM
same,LC50 (concentration giving 50% net cell kill),A549 [2],37.1 µM
same,TGI,A549 [2],5.45 µM
same,GI50,HOP-62,1.53 µM
same,LC50,HOP-62,5.72 µM
same,TGI,HOP-62,2.96 µM
same,GI50,NCI-H322M [3],1.54 µM
same,TGI,NCI-H322M [3],3.01 µM
same,CC50,NCI-H322M [3]; read-out: LC50 (the source's name),5.87 µM
same,GI50,NCI-H522 [4],0.25 µM
same,LC50,NCI-H522 [4],3.92 µM
same,TGI,NCI-H522 [4],0.871 µM
same,GI50,OVCAR-3,1.41 µM
same,LC50,OVCAR-3,5.58 µM
same,TGI,OVCAR-3,2.8 µM
same,GI50,OVCAR-8 [5],1.57 µM
same,LC50,OVCAR-8 [5],5.93 µM
same,TGI,OVCAR-8 [5],3.05 µM
same,GI50,NCI/ADR-RES,2.25 µM
same,LC50,NCI/ADR-RES,> 100 µM
same,TGI,NCI/ADR-RES,6.87 µM
same,GI50,SK-OV-3,2.89 µM
same,LC50,SK-OV-3,25.2 µM
same,TGI,SK-OV-3,7.16 µM
same,GI50,786-0,1.61 µM
same,LC50,786-0,5.54 µM
same,TGI,786-0,2.99 µM
same,GI50,A498,1.33 µM
same,LC50,A498,6 µM
same,TGI,A498,2.83 µM
same,GI50,RXF 393,1.54 µM
same,LC50 (concentration killing 50% of cells),RXF 393,6.62 µM
same,TGI,RXF 393,3.19 µM
same,GI50,MCF7,0.33 µM
same,LC50,MCF7,4.52 µM
same,TGI,MCF7,1.42 µM
same,growth at 0.01 µM,RPMI-8226 [6],100%
same,growth at 0.01 µM,MOLT-4,100%
same,growth at 0.01 µM,SN12C [7],95%
same,growth at 0.01 µM,T47D,92%
same,growth at 0.01 µM,MDA-MB-468,93%
same,growth at 0.1 µM,SR [8],98%
same,growth at 0.1 µM,NCI-H322M [9],92%
same,growth at 0.1 µM,NCI-H522 [10],89%
same,growth at 0.1 µM,OVCAR-8 [11],98%
same,growth at 1 µM,SR [12],38%
same,growth at 1 µM,SK-MEL-5,92%
same,growth at 1 µM,SN12C [13],87%
same,growth at 10 µM,K562,2%
same,growth at 10 µM,SR [14],-24%
same,growth at 10 µM,A549 [15],-30%
same,growth at 10 µM,HCC 2998,-88%
same,growth at 10 µM,MDA-MB-435,-88%
same,growth at 10 µM,SN12C [16],-96%
same,growth at 10 µM,UO-31 [17],-91%
same,growth at 100 µM,CCRF-CEM [18],-38%
same,growth at 100 µM,RPMI-8226 [19],-54%
same,growth at 100 µM,M14,-80%
same,growth at 100 µM,SN12C [20],-96%
same,growth at 100 µM,UO-31 [21],-95%
